From ChEMBL document CHEMBL1201862, “PubChem BioAssay data set” (2004)
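Interpolation was linear, between the two tested concentrations surrounding the appropriate level; five concentrations were tested over 48 hours in 96-well plates. GI50 = concentration required for 50% inhibition of growth.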 Activity calls are given as the source filed them. Cut-off read from the data, not from the text of the source: active = GI50 up to about 1.1 µM and inactive = higher.

How the values were obtained:
Experiment in all cases: NCI-60 cell line screen, 48 h
COLO 205 = test system: COLO 205
KM12 = test system: KM12
SF-268 = test system: SF-268
PC-3 = test system: PC-3
SN12C = test system: SN12C
SK-MEL-28 = test system: SK-MEL-28
UO-31 = test system: UO-31
786-0 = test system: 786-0
SW-620 = test system: SW-620
A549 = test system: A549
SK-MEL-5 = test system: SK-MEL-5
UACC-62 = test system: UACC-62
NCI/ADR-RES = test system: NCI/ADR-RES
SNB-75 = test system: SNB-75
RPMI-8226 = test system: RPMI-8226
MDA-N = test system: MDA-N
MCF7 = test system: MCF7
EKVX = test system: EKVX
OVCAR-4 = test system: OVCAR-4
HOP-62 = test system: HOP-62
SK-MEL-2 = test system: SK-MEL-2
MDA-MB-231 = test system: MDA-MB-231
OVCAR-8 = test system: OVCAR-8
SR = test system: SR
SF-295 = test system: SF-295
SK-OV-3 = test system: SK-OV-3
Hs-578T = test system: Hs-578T
K562 = test system: K562
HCT-116 = test system: HCT-116
A498 = test system: A498
MDA-MB-435 = test system: MDA-MB-435
T47D = test system: T47D
M14 = test system: M14
HCC 2998 = test system: HCC 2998
NCI-H460 = test system: NCI-H460
HT-29 = test system: HT-29
NCI-H23 = test system: NCI-H23
MOLT-4 = test system: MOLT-4
CAKI-1 = test system: CAKI-1
U-251 = test system: U-251
DU-145 = test system: DU-145
OVCAR-3 = test system: OVCAR-3
OVCAR-5 = test system: OVCAR-5
LOX IMVI = test system: LOX IMVI
IGROV-1 = test system: IGROV-1
HL-60 = test system: HL-60
RXF 393 = test system: RXF 393
Malme-3M = test system: Malme-3M
NCI-H522 = test system: NCI-H522
ACHN = test system: ACHN
SNB-19 = test system: SNB-19
BT-549 = test system: BT-549
HCT-15 = test system: HCT-15
NCI-H226 = test system: NCI-H226

Measured: GI50

N#CCCN(CCCCN(CCC#N)C(=O)Nc1ccccc1)C(=O)Nc1ccccc1
> 100 µM: HCT-15
inactive: COLO 205 > 100 µM | KM12 > 100 µM | SF-268 > 100 µM | PC-3 > 100 µM | SN12C > 100 µM | SK-MEL-28 > 100 µM | UO-31 > 100 µM | 786-0 > 100 µM | SW-620 > 100 µM | A549 > 100 µM | SK-MEL-5 > 100 µM | UACC-62 > 100 µM | NCI/ADR-RES > 100 µM | SNB-75 15.5 µM | RPMI-8226 > 100 µM | MDA-N > 100 µM | MCF7 > 100 µM | EKVX > 100 µM | OVCAR-4 > 100 µM | HOP-62 > 100 µM | SK-MEL-2 > 100 µM | MDA-MB-231 > 100 µM | OVCAR-8 > 100 µM | SR > 100 µM | SF-295 > 100 µM | SK-OV-3 > 100 µM | Hs-578T > 100 µM | K562 > 100 µM | HCT-116 > 100 µM | A498 > 100 µM | MDA-MB-435 > 100 µM | T47D > 100 µM | M14 > 100 µM | HCC 2998 > 100 µM | NCI-H460 > 100 µM | HT-29 > 100 µM | NCI-H23 > 100 µM | MOLT-4 > 100 µM | CAKI-1 > 100 µM | U-251 > 100 µM | DU-145 > 100 µM | OVCAR-3 > 100 µM | OVCAR-5 > 100 µM | LOX IMVI > 100 µM | IGROV-1 > 100 µM | HL-60 > 100 µM | RXF 393 24.4 µM | Malme-3M > 100 µM | NCI-H522 > 100 µM | ACHN > 100 µM | SNB-19 > 100 µM | BT-549 > 100 µM | NCI-H226 > 100 µM
